Active and inactive are the calls of the source.
How the values were obtained:
[1] = target: T1, Zinc finger protein mex-5 (Caenorhabditis elegans, UniProt Q9XUB2); test: potency of MEX-5 RNA-binding blockers – biochemical, C. elegans, fluorescence polarization, dose response (AID 1960)
T1 sequence (Q9XUB2 whole entry): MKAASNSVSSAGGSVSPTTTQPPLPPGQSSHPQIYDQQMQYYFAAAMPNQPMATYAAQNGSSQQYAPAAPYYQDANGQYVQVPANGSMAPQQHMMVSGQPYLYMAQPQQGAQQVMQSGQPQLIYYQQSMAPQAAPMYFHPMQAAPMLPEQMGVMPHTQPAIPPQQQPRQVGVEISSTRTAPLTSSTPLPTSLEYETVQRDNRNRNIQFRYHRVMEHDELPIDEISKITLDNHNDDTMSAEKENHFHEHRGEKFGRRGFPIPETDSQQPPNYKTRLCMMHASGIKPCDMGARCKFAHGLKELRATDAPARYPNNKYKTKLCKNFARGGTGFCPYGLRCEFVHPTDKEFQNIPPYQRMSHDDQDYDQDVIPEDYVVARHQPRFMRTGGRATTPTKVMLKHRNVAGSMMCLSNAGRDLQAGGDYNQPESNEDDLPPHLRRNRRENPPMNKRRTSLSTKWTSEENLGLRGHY

[2] = target: Polyadenylate-binding protein 1 (Homo sapiens, UniProt P11940); test: MLLE binding blockers, Cy5 peptide tracer – biochemical, fluorescence polarization, Cy5-PAM2 peptide, secondary, miRNA deadenylation inhibitor project, dose response (AID 602260); type: functional; details: read-out: IC50_Mean
Chain of Polyadenylate-binding protein 1 (P11940 whole entry): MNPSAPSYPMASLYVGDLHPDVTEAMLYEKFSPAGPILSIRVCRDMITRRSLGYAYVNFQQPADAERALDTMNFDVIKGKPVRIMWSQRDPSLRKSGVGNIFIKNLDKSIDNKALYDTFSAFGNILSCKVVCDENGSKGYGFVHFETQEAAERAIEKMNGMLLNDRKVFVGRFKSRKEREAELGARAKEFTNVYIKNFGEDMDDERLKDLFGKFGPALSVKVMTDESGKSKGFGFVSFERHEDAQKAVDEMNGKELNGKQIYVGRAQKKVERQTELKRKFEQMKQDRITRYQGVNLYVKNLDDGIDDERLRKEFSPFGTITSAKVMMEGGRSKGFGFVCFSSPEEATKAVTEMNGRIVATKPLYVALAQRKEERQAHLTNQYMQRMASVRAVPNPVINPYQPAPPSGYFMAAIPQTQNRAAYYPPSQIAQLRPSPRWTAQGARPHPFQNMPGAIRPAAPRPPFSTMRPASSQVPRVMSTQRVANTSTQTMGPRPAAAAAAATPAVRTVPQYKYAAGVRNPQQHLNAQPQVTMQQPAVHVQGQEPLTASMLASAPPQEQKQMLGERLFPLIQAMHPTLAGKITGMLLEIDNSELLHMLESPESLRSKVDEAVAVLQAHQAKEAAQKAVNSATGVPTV

SMILES: CN1CCc2cc3c(c4c2[C@H]1[C@H](O)c1ccccc1-4)OCO3
- EC50 [1]: 8.45 µM (inconclusive)
- IC50 [2]: > 66 µM (inactive)

— ChEMBL document CHEMBL1201862, “PubChem BioAssay data set” (2004)
